From US9624224B2, “Inhibitors of Bruton's tyrosine kinase” (Pharmacyclics LLC, priority 2013, dated 2017)

Columns and labels:
Type in all cases: biochemical
[1] = target: EGFR (Homo sapiens, UniProt P00533); assay: EGFR kinase inhibition (in vitro kinase assay)
[2] = target: Lck (Homo sapiens, UniProt P06239); assay: Lck kinase inhibition (in vitro kinase assay)
Protocol: (§1) Btk kinase activity is determined using a time-resolved fluorescence resonance energy transfer (TR-FRET) methodology. Measurements are performed in a reaction volume of 50 μL using 96-well assay plates. […] The reaction is quenched by the addition of 1.2 equivalents of EDTA (relative to divalent cation) in 25 μL of 1× Lance buffer (Perkin-Elmer). Streptavidin-APC (Perkin-Elmer) and Eu-labeled p-Tyr100 antibody (Perkin-Elmer) in 1× Lance buffer are added in a 25 μL volume to give final concentrations of 100 nM and 2.5 nM, respectively, and the mixture is allowed to incubate for one hour. The TR-FRET signal is measured on a multimode plate reader with an excitation wavelength (λEx) of 330 nm and detection wavelengths (λEm) of 615 and 665 nm. Activity is determined by the ratio of the fluorescence at 665 nm to that at 615 nm. For each compound, enzyme activity is measured at various concentrations of compound. Negative control reactions are performed in the absence of inhibitor in replicates of six, and two no-enzyme controls are used to determine baseline fluorescence levels. Inhibition constants, Ki(app), ware obtained using the program BatchKi (Kuzmic et al. (2000), Anal. Biochem. 286:45-50). IC50s are obtained according to the equation: IC50={Ki(app)/(1+[ATP]/Km^ATP)}+[E]total/2;
(§2) For all kinases, [ATP]=Km^ATP, [Btk]total=0.5 nM and [Lck]total=6 nM.

[3] = target: T1, BTK (Homo sapiens, UniProt Q06187); assay: Btk in vitro inhibitory activity (TR-FRET, mobility shift or radiometric filter binding kinase assay); details: determined using one of the methods outlined in Example 47a, 47b, and 47c
T1 construct: purified from insect cells as a full-length construct containing a N-terminal 6×-His tag; His6 (N); made in house; host or cells: insect cells (baculovirus, Sf21)
Protocol: as §1, §2
Kinase activity is measured in vitro using electrophoretic mobility shift assay. The kinase reactions are assembled in a total volume of 25 μL in 384 well plates. […] The reaction is incubated for one hour and is quenched by the addition of 45 μL of termination buffer (100 mM HEPES, pH7.5, 0.01% Triton X-100, 30 mM EDTA). The terminated reactions are analyzed using 12 channel LabChip® 3000 microfluidic detection instrument (Caliper Life Sciences). The enzymatic phosphorylation of the peptide results in a change in net charge, enabling electrophoretic separation of product from substrate peptide. As substrate and product peptides are separated, two peaks of fluorescence are observed. Change in the relative fluorescence intensity of the substrate and product peaks is the parameter measured, reflecting enzyme activity. In the presence of an inhibitor, the ratio between product and substrate is altered: the signal of the product decreases, while the signal of the substrate increases.
Activity in each sample is determined as the product to sum ratio (PSR): P/(S+P), where P is the peak height of the product peptide and S is the peak height of the substrate peptide. For each compound, enzyme activity is measured at various concentrations (12 concentrations of compound spaced by 3× dilution intervals). Negative control samples (0%-inhibition in the absence of inhibitor) and positive control samples (100%-inhibition, in the presence of 20 mM EDTA) are assembled in replicates of four and are used to calculate %-inhibition values for each inhibitor at each concentration. Percent inhibition (Pinh) is determined using following equation: Pinh=(PSR0%−PSRinh)/(PSR0%−PSR100%)*100,
where PSRmh is the product sum ratio in the presence of inhibitor, PSR0% is the average product sum ration in the absence of inhibitor and PSR100% is the average product sum ratio in 100%-inhibition control samples;
The IC50 values of inhibitors are determined by 4 parameter sigmoidal dose-response model fitting of the inhibition curves (Pinh versus inhibitor concentration) using XLfit 4 software.
Human Btk kinase (Genbank accession # NP_000052) was purified from insect cells as a full-length construct containing a N-terminal 6×-His tag. Btk kinase activity was determined using a radiometric filter binding assay. Measurements are performed in a low μL reaction volume 384-well assay plates. […]

T1 sequence (Q06187 whole entry): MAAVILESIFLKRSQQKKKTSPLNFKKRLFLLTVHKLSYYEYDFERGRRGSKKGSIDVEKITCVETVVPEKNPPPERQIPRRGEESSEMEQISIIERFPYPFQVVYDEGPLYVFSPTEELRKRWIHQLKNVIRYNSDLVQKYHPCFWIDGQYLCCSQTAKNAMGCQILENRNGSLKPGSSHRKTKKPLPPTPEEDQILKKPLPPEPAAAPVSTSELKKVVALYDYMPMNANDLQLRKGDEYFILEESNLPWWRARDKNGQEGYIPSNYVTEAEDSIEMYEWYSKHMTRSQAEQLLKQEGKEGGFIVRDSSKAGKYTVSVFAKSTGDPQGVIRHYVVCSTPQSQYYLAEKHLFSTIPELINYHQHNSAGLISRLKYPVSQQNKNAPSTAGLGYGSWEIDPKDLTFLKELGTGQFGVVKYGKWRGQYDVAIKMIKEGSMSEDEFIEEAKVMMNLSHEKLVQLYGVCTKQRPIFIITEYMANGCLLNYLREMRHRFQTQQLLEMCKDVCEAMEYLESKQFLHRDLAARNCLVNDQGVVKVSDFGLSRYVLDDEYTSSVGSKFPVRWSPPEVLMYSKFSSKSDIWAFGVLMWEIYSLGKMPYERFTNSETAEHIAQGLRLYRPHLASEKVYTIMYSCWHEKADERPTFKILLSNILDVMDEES
Lck, sequence (P06239 whole entry, species assumed): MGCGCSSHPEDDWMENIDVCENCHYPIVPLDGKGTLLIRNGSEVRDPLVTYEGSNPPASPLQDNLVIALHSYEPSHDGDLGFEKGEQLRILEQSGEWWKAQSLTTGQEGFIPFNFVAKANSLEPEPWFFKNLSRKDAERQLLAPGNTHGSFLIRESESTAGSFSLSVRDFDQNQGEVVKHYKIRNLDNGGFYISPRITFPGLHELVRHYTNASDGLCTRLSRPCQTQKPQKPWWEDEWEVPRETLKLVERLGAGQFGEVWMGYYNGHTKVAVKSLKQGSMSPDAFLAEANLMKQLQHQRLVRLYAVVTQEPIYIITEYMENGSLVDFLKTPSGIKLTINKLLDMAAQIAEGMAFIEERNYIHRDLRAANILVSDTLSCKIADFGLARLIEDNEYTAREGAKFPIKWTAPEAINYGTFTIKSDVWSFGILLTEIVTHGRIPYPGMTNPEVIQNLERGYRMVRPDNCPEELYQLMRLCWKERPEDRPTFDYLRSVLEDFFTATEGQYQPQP
EGFR, sequence (P00533 25-1210, species assumed): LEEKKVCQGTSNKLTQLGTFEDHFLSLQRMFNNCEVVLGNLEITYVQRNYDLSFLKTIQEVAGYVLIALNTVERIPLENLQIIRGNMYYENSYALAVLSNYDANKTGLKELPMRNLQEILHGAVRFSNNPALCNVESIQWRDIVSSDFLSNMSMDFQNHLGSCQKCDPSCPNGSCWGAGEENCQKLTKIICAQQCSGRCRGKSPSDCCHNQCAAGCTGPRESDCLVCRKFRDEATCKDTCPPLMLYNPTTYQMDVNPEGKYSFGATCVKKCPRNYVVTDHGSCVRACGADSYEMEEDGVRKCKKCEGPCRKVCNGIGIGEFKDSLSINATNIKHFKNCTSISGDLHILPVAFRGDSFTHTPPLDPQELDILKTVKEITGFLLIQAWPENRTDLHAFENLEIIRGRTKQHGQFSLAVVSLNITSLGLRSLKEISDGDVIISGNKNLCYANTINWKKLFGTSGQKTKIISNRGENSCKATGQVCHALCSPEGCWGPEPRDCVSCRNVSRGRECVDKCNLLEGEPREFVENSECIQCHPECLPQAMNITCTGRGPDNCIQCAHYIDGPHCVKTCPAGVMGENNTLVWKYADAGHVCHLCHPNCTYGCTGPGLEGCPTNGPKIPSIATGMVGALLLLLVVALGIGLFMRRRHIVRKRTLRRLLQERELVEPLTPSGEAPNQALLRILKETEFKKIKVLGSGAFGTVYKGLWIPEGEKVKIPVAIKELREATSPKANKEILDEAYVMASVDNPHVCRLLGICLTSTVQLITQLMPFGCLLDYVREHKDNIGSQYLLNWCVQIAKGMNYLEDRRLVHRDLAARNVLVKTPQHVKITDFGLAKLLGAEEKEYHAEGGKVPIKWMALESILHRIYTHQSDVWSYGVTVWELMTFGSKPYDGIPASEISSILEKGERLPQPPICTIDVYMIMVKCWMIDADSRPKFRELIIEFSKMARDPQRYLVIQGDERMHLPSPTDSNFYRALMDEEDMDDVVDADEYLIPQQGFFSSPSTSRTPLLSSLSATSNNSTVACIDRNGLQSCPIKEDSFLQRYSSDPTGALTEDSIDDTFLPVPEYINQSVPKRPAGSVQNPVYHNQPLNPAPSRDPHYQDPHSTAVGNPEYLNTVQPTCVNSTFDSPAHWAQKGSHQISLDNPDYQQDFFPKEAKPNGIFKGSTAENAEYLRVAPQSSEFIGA

| SMILES | IC50 [1] | IC50 [2] | IC50 [3] |
| --- | --- | --- | --- |
| CN(C/C=C/C(=O)N1CC[C@@H](n2nc(-c3ccc(C(=O)Nc4cc(C(F)(F)F)ccn4)cc3)c3c(N)ncnc32)C1)C1CC1 [Example 2, (R,E)-4-(4-Amino-1-(1-(4-(cyclopropyl(methyl)amino)but-2-enoyl)pyrrolidin-3-yl)-1H-pyrazolo[3,4-d]pyrimidin-3-yl)-N-(4-(trifluoromethyl)pyridin-2-yl)benzamide] | 100 to 1000 nM | 100 to 1000 nM | < 1 nM |
| COc1cc(-c2nn([C@@H]3CCN(C(=O)/C=C/CN(C)C4CC4)C3)c3ncnc(N)c23)ccc1C(=O)Nc1cc(C)ccn1 [Example 5, (R,E)-4-(4-amino-1-(1-(4-(cyclopropyl(methyl)amino)but-2-enoyl)pyrrolidin-3-yl)-1H-pyrazolo[3,4-d]pyrimidin-3-yl)-2-methoxy-N-(4-methylpyridin-2-yl)benzamide] | 1000 to 10000 nM | 1000 to 10000 nM | < 100 nM |
| Cc1ccnc(NC(=O)c2ccc(-c3nn([C@@H]4CCN(C(=O)/C=C/CN(C)C5CC5)C4)c4ncnc(N)c34)cc2)c1 [Example 1, (R,E)-4-(4-amino-1-(1-(4-(cyclopropyl(methyl)amino)but-2-enoyl)pyrrolidin-3-yl)-1H-pyrazolo[3,4-d]pyrimidin-3-yl)-N-(4-methylpyridin-2-yl)benzamide] | 1000 to 10000 nM | 100 to 1000 nM | < 1 nM |
| CCc1cnc(NC(=O)c2ccc(-c3nn([C@@H]4CCN(C(=O)/C=C/CN(C)C5CC5)C4)c4ncnc(N)c34)cc2)s1 [Example 9, (R,E)-4-(4-amino-1-(1-(4-(cyclopropyl(methyl)amino)but-2-enoyl)pyrrolidin-3-yl)-1H-pyrazolo[3,4-d]pyrimidin-3-yl)-N-(5-ethylthiazol-2-yl)benzamide] | 100 to 1000 nM | < 100 nM | < 100 nM |
| CCc1ccnc(NC(=O)c2ccc(-c3nn([C@@H]4CCN(C(=O)/C=C/CN(C)C5CC5)C4)c4ncnc(N)c34)cc2)c1 [Example 4, (R,E)-4-(4-amino-1-(1-(4-(cyclopropyl(methyl)amino)but-2-enoyl)pyrrolidin-3-yl)-1H-pyrazolo[3,4-d]pyrimidin-3-yl)-N-(4-ethylpyridin-2-yl)benzamide] | 1000 to 10000 nM | 100 to 1000 nM | < 1 nM |
| CCCc1ccnc(NC(=O)c2ccc(-c3nn([C@@H]4CCN(C(=O)/C=C/CN(C)C5CC5)C4)c4ncnc(N)c34)cc2)c1 [Example 3, (R,E)-4-(4-amino-1-(1-(4-(cyclopropyl(methyl)amino)but-2-enoyl)pyrrolidin-3-yl)-1H-pyrazolo[3,4-d]pyrimidin-3-yl)-N-(4-propylpyridin-2-yl)benzamide] | 100 to 1000 nM | 100 to 1000 nM | < 1 nM |
| CC(C)c1cnc(NC(=O)c2ccc(-c3nn([C@@H]4CCN(C(=O)/C=C/CN(C)C5CC5)C4)c4ncnc(N)c34)cc2)s1 [Example 8, (R,E)-4-(4-amino-1-(1-(4-(cyclopropyl(methyl)amino)but-2-enoyl)pyrrolidin-3-yl)-1H-pyrazolo[3,4-d]pyrimidin-3-yl)-N-(5-isopropylthiazol-2-yl)benzamide] | 100 to 1000 nM | < 100 nM | < 100 nM |

The remaining lines, values ahead:

| IC50 [1] | IC50 [2] | IC50 [3] | SMILES |
| --- | --- | --- | --- |
| 1000 to 10000 nM | 100 to 1000 nM | < 1 nM | CC(C)c1ccnc(NC(=O)c2ccc(-c3nn([C@@H]4CCN(C(=O)/C=C/CN(C)C5CC5)C4)c4ncnc(N)c34)cc2)c1 [Example 18, (R,E)-4-(4-amino-1-(1-(4-(cyclopropyl(methyl)amino)but-2-enoyl)pyrrolidin-3-yl)-1H-pyrazolo[3,4-d]pyrimidin-3-yl)-N-(4-isopropylpyridin-2-yl)benzamide] |
| 100 to 1000 nM | 100 to 1000 nM | < 1 nM | CN(C)C/C=C/C(=O)N1CC[C@@H](n2nc(-c3ccc(C(=O)Nc4ccccn4)cc3)c3c(N)ncnc32)C1 [Example 30, (R,E)-4-(4-amino-1-(1-(4-(dimethylamino)but-2-enoyl)pyrrolidin-3-yl)-1H-pyrazolo[3,4-d]pyrimidin-3-yl)-N-(pyridin-2-yl)benzamide] |
| 100 to 1000 nM | < 100 nM | < 1 nM | CC(C)c1ccnc(NC(=O)c2ccc(-c3nn([C@@H]4CCN(C(=O)/C=C/CN(C)C)C4)c4ncnc(N)c34)cc2)c1 [Example 31, (R,E)-4-(4-amino-1-(1-(4-(dimethylamino)but-2-enoyl)pyrrolidin-3-yl)-1H-pyrazolo[3,4-d]pyrimidin-3-yl)-N-(4-isopropylpyridin-2-yl)benzamide] |
|  | 100 to 1000 nM |  | CN(C/C=C/C(=O)N1CC[C@@H](n2nc(-c3ccc(C(=O)Nc4ccccn4)cc3)c3c(N)ncnc32)C1)C1CC1 [Example 46, (R,E)-4-(4-amino-1-(1-(4-(cyclopropyl(methyl)amino)but-2-enoyl)pyrrolidin-3-yl)-1H-pyrazolo[3,4-d]pyrimidin-3-yl)-N-(pyridin-2-yl)benzamide] |
|  |  | < 100 nM | CN(C/C=C/C(=O)N1CCC[C@@H](n2nc(-c3ccc(C(=O)Nc4ccccn4)cc3)c3c(N)ncnc32)C1)C1CC1 [Example 34, (R,E)-4-(4-amino-1-(1-(4-(cyclopropyl(methyl)amino)but-2-enoyl)piperidin-3-yl)-1H-pyrazolo[3,4-d]pyrimidin-3-yl)-N-(pyridin-2-yl)benzamide] |
| 100 to 1000 nM | < 100 nM | < 100 nM | CN(C/C=C/C(=O)N1CC[C@@H](n2nc(-c3ccc(C(=O)Nc4ncc(C(F)(F)F)s4)cc3)c3c(N)ncnc32)C1)C1CC1 [Example 11, (R,E)-4-(4-amino-1-(1-(4-(cyclopropyl(methyl)amino)but-2-enoyl)pyrrolidin-3-yl)-1H-pyrazolo[3,4-d]pyrimidin-3-yl)-N-(5-(trifluoromethyl)thiazol-2-yl)benzamide] |
|  |  | < 1 nM | CN(C/C=C/C(=O)N1CCC[C@@H](n2nc(-c3ccc(C(=O)Nc4cc(C#N)ccn4)cc3)c3c(N)ncnc32)C1)C1CC1 [Example 38, (R,E)-4-(4-amino-1-(1-(4-(cyclopropyl(methyl)amino)but-2-enoyl)piperidin-3-yl)-1H-pyrazolo[3,4-d]pyrimidin-3-yl)-N-(4-cyanopyridin-2-yl)benzamide] |
| > 10000 nM | > 10000 nM | < 100 nM | CN(C/C=C/C(=O)N1CC[C@@H](n2nc(-c3ccc(C(=O)Nc4ncco4)cc3)c3c(N)ncnc32)C1)C1CC1 [Example 14, (R,E)-4-(4-amino-1-(1-(4-(cyclopropyl(methyl)amino)but-2-enoyl)pyrrolidin-3-yl)-1H-pyrazolo[3,4-d]pyrimidin-3-yl)-N-(oxazol-2-yl)benzamide] |
| 1000 to 10000 nM | 100 to 1000 nM | < 100 nM | CN(C/C=C/C(=O)N1CC[C@@H](n2nc(-c3ccc(C(=O)Nc4cc(C#N)ccn4)cc3)c3c(N)ncnc32)C1)C1CC1 [Example 16, (R,E)-4-(4-amino-1-(1-(4-(cyclopropyl(methyl)amino)but-2-enoyl)pyrrolidin-3-yl)-1H-pyrazolo[3,4-d]pyrimidin-3-yl)-N-(4-cyanopyridin-2-yl)benzamide] |
|  |  | < 1 nM | Cc1ccnc(NC(=O)c2ccc(-c3nn([C@@H]4CCCN(C(=O)/C=C/CN(C)C)C4)c4ncnc(N)c34)cc2)c1 [Example 41, (R,E)-4-(4-amino-1-(1-(4-(dimethylamino)but-2-enoyl)piperidin-3-yl)-1H-pyrazolo[3,4-d]pyrimidin-3-yl)-N-(4-methylpyridin-2-yl)benzamide] |
